The results in this text go back to ChEMBL document CHEMBL4270590, “Azulene-based compounds for targeting orexin receptors” (Eur J Med Chem, 2018).

SMILES strings stand for the structures. Calls of active or inactive are those of the source. The rule behind the calls is not given here.

Data set [1] addresses T1, Orexin receptor type 2 (Homo sapiens) (UniProt O43614).
T1 sequence (whole entry): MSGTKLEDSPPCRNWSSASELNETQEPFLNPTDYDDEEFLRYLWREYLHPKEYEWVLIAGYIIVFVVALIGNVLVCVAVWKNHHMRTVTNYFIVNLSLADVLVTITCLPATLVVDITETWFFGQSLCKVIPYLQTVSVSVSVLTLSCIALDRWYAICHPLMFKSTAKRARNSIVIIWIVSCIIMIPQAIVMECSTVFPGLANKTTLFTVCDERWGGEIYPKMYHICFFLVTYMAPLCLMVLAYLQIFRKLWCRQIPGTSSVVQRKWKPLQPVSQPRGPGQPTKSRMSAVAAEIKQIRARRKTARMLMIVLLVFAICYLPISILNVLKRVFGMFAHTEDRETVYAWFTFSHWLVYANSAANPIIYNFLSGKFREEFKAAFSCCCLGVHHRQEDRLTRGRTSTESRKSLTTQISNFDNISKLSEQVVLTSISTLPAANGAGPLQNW
Nature of the data set: Agonist activity at human OX2 receptor expressed in CHOK1 cells assessed as increase in calcium accumulation at 10 uM incubated for 30 mins measured for 150 secs by calcium-4 dye based FLIPR assay relative to orexin-A. Format: functional, cell-based.

Data set [2] deals with T1, Orexin receptor type 2 (Homo sapiens). Nature of the data set: Allosteric agonist activity at human OX2 receptor expressed in CHOK1 cells assessed as potentiation of orexin-A induced calcium accumulation at 10 uM preincubated for 30 mins followed by orexin-A addition and measured for 150 secs by calcium-4 dye based FLIPR assay relative to control. Format: functional, cell-based.

Data set [3] concerns the target T2, Orexin/Hypocretin receptor type 1 (Homo sapiens) (UniProt O43613).
T2 sequence (whole entry): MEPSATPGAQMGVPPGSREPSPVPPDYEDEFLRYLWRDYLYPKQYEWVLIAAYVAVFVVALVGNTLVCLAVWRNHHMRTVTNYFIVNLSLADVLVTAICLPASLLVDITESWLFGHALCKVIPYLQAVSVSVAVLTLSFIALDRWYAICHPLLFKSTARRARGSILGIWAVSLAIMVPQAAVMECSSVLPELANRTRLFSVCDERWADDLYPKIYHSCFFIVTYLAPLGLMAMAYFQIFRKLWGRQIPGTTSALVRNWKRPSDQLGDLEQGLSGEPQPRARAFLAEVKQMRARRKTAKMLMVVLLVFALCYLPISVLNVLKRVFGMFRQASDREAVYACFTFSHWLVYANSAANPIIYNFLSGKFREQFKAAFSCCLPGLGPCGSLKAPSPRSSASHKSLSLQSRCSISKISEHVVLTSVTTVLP
Nature of the data set: Agonist activity at human OX1 receptor expressed in CHOK1 cells assessed as increase in calcium accumulation at 10 uM incubated for 30 mins measured for 150 secs in presence of OX1R antagonist SB-334867 by calcium-4 dye based FLIPR assay. Format: functional, cell-based.

Data set [4] deals with T2, Orexin/Hypocretin receptor type 1 (Homo sapiens). Nature of the data set: Allosteric agonist activity at human OX1 receptor expressed in CHOK1 cells assessed as potentiation of orexin-A induced calcium accumulation at 10 uM preincubated for 30 mins followed by orexin-A addition and measured for 150 secs by calcium-4 dye based FLIPR assay relative to control. Format: functional, cell-based.

For data set [5] the target is unchanged. As to the kind of experiment: Agonist activity at human OX1 receptor expressed in CHOK1 cells assessed as increase in calcium accumulation at 10 uM incubated for 30 mins measured for 150 secs by calcium-4 dye based FLIPR assay relative to orexin-A. Format: functional, cell-based.
Data set [6] has as its target T1, Orexin receptor type 2 (Homo sapiens). Nature of the data set: Agonist activity at human OX2 receptor expressed in CHOK1 cells assessed as increase in calcium accumulation at 10 uM incubated for 30 mins measured for 150 secs in presence of OX2R antagonist TCS-1102 by calcium-4 dye based FLIPR assay. Format: functional, cell-based.
In a further data set the test system is CHO-K1. As to the kind of experiment: Effect on ATP-induced intracellular calcium accumulation in CHOK1 cells expressing human OXR at 10 uM incubated for 30 mins and measured for 150 secs by calcium-4 dye based FLIPR assay. Format: functional, cell-based. The note with it: Cricetulus griseus. In general terms: Calcium flux is commonly read through the fluorescence of an indicator in the cells.

In data set [7] the target is T1, Orexin receptor type 2 (Homo sapiens). Nature of the data set: Displacement of [125I]-orexin-A from human OX2 receptor expressed in CHOK1 cells at 10 uM incubated for 10 mins and measured after 90 mins by liquid scintillation counting method relative to control. Format: cell-based. In general terms: In a radioligand displacement assay an active substance lowers the binding of a labelled ligand.

For data set [8] the target is unchanged. Nature of the data set: Allosteric agonist activity at human OX2 receptor expressed in CHOK1 cells assessed as potentiation of orexin-A induced calcium accumulation preincubated for 30 mins followed by orexin-A addition and measured for 150 secs by calcium-4 dye based FLIPR assay. Format: functional, cell-based.
Data set [9] is described as follows: Solubility of the compound in water. Conditions: buffer. Format: physicochemical.
The target of data set [10] is T2, Orexin/Hypocretin receptor type 1 (Homo sapiens). Nature of the data set: Allosteric agonist activity at human OX1 receptor expressed in CHOK1 cells assessed as potentiation of orexin-A induced calcium accumulation at 5 uM preincubated for 30 mins followed by orexin-A addition and measured for 150 secs by calcium-4 dye based FLIPR assay relative to control. Format: functional, cell-based.

Data set [11] has the same target. Nature of the data set: Allosteric agonist activity at human OX1 receptor expressed in CHOK1 cells assessed as potentiation of orexin-A induced calcium accumulation preincubated for 30 mins followed by orexin-A addition and measured for 150 secs by calcium-4 dye based FLIPR assay. Format: functional, cell-based.
Data set [12] can be described thus: Colloidal aggregating behavior of the compound at 1 to 30 uM by nephelometric method. Format: physicochemical.
The target of data set [13] is T3, Orexin/Hypocretin receptor type 1 (Homo sapiens, UniProt O43613).
T3 sequence (O43613 whole entry): T2 sequence (whole entry)
Nature of the data set: Antagonist activity at human OX1 receptor expressed in CHOK1 cells assessed as inhibition of orexin-A-induced calcium accumulation preincubated for 30 mins followed by orexin-A addition measured for 150 secs by calcium-4 dye based FLIPR assay. Format: functional, cell-based. The note with it: read-out: Ki(app).

The target of a further data set is T4, Orexin receptor type 2 (Homo sapiens, UniProt O43614).
T4 sequence (O43614 whole entry): T1 sequence (whole entry)
Nature of the data set: Antagonist activity at human OX2 receptor expressed in CHOK1 cells assessed as inhibition of orexin-A-induced calcium accumulation preincubated for 30 mins followed by orexin-A addition measured for 150 secs by calcium-4 dye based FLIPR assay. Conditions: read-out: Ki(app). Format: functional, cell-based.

Data set [14] deals with T2, Orexin/Hypocretin receptor type 1 (Homo sapiens). As to the kind of experiment: Displacement of [125I]-orexin-A from human OX1 receptor expressed in CHOK1 cells at 10 uM incubated for 10 mins and measured after 90 mins by liquid scintillation counting method relative to control. Format: cell-based.
Data set [15] is described as follows: Colloidal aggregating behavior of the compound at 18 to 30 uM by nephelometric method. Format: physicochemical.

With `COC(=O)c1ccc2ccc(C(=O)c3ccc(C(F)(F)F)cc3)c-2cc1`, the Emax (in general, the maximal effect, on the per cent scale that the assay sets) in data set [1] amounted to 12.4%; in data set [5], 6.13%. In addition, the results for the fold change (FC) in data set [2] and in data set [4] were 0.86 and 1.59, respectively. Moreover, the result (in data set [3]; in [6]; in the data set with CHO-K1) was inactive.

As to `COC(=O)Cc1ccc2ccc(C(=O)c3ccc(C(F)(F)F)cc3)c-2cc1`, the inhibition – broadly, the change of the read-out against control, counted positive when it falls – in data set [7] turned out to be 1%. In addition, the Emax in data set [1] was found to be 0.37%; in data set [5], 1.28%. Also, the fold change (FC) in data set [2] was 1.34; in data set [4], 2.03; in [10] it was 1.4. In addition, the Activity result in [8] and in data set [11] was “Dose-dependent effect” throughout. Moreover, the solubility result in [9] is “Insoluble”. Also, the outcome in the data set with CHO-K1 was inactive.

`COC(=O)c1cc(CN2CCOCC2)c2ccc(Cl)ccc1-2`: in [12], the Activity result is given as “Not Active”. Moreover, the inhibition worked out at 46.7% in data set [7] and 24.5% in data set [14]. Also, the Emax was -0.98% in [1] and 0.42% in [5]. The Ki in data set [13] lay within 5.4 to 7.6 µM; at Orexin receptor type 2, 4.3 to 8.6 µM.

`CCOc1ccc(-c2cc(C(=O)c3ccccc3)c3ccc(C(=O)O)ccc2-3)cc1`: the Activity entry in data set [12] is “Not Active”. Moreover, the Emax in data set [1] was -0.99%; in data set [5], -0.17%. In addition, the Ki in data set [13] lay within 3.1 to 7.5 µM; on Orexin receptor type 2, 3.2 to 4.9 µM. Moreover, the fold change (FC) was found to be 0.76 in [2] and 1.01 in data set [4]. In addition, in the data set with CHO-K1, the result was inactive.

For the molecule `COC(=O)c1cccc2c(C=O)cc(I)c-2c1`, the results for the inhibition in data set [7] and in data set [14] were 47.2% and 40.7%, respectively. Besides, the values for the Emax in [1] and in data set [5] were 0.68% and 1.59%, respectively. Also, the results for the Ki (in [13]; at Orexin receptor type 2) were 4.8 µM and 3.6 µM, respectively. Also, the result in data set [15] was Active.

For the molecule `COC(=O)Cc1ccc2ccc(C(=O)c3ccccc3)c-2cc1`, in data set [7], the inhibition is -4.3%. In addition, the Emax came to 11% in [1] and 5.01% in [5]. In addition, the figures for the fold change (FC) in data set [2] and in data set [4] were 0.97 and 1.86, respectively. In addition, the result (in data set [3]; in data set [6]; in the data set with CHO-K1) was inactive.
